Test results as given in patent US20050004211A1, “Pharmaceutical compositions comprising aryl-substituted acyclic enediyne compounds” (KAOHSIUNG MEDICAL UNIVERSITY, priority 2003, published 2005).
≈ marks a conversion by molar mass, not a printed value. Like-named read-outs stand apart in the source and are kept apart here.

What was measured:
[1] = tested on: DLD (DLD-1): human colon adenocarcinoma; assay: In vitro anticancer assay (cytotoxicity), human solid tumor cells; conditions: for IC50: Homo sapiens, DLD-1, read-out: IC50 Values of Cytotoxicities, DLD
Hep2,2,15 = conditions: read-out: Cytotoxicities (IC50), Hep2,2,15, earlier research work; cited from earlier work
Hepa: human hepatoma [2] = assay: In vitro anticancer assay (cytotoxicity), human solid tumor cells; conditions: for IC50: Homo sapiens, HepA, read-out: IC50 Values of Cytotoxicities, Hepa
[3] = tested on: NCI (NCI-H661): human lung large cell carcinoma; assay: as above; conditions: for IC50 Values of Cytotoxicities, NCI: NCI (NCI-H661); for IC50: Homo sapiens, NCI-H661, read-out: IC50 Values of Cytotoxicities, NCI
[4] = tested on: Hela: human cervix epitheloid carcinoma; assay: as above; conditions: for IC50: Homo sapiens, HeLa, read-out: IC50 Values of Cytotoxicities, Hela
KB = conditions: read-out: Cytotoxicities (IC50), KB; KB cell; earlier research work; cited from earlier work
[5] = tested on: human hepatoma Hep G2 cells; assay: Cell cycle analysis by flow cytometry; assay type: cell-based; conditions: 72 hrs
Method: Samples of 1×10^6 Hep G2 cells were plated on a 6 cm tissue culture dish, and the cells were allowed to recover 24 hrs before any treatment. Thereafter, DMSO or a test compound (1 μM, 10 μM or 50 μM) was added to the cells for 1 hr in complete medium at 37° C., washed twice with PBS, and incubated in fresh media for the incubation time. Cell were harvested with trypsin and washed twice with PBS. Samples were fixed in 70% ethanol and stored at 4° C. for at least 24 hrs and then washed once with Mcllvaine's buffer (0.2M Na2HPO4, 0.1M citric acid, pH=7.5) and once again with PBS. Samples were stained with PI (propidium iodide) staining solution (PBS containing 100 μg/ml, RNase A and 10 μg/ml PI [Sigma]), processed on a Coulter Elite flow cytometry, and the data analyzed with the Mutiplus AV program.
To obtain more information about the effect(s) of the acyclic enediynes according to this invention upon the growth of cells, human hepatoma Hep G2 cells or K-562 cells were used, and the growth characteristic of said cells were measured subsequent to the treatment with a test compound.
1 μM or 10 μM of compound 5 was added to the cells, and after exposure to the compounds for 72 hrs, attached cells were analyzed by flow cytometry. The majority (71.5%) of control cells exposed to DMSO were in the G0-G1 phase of cell cycle, and only a small amount of cells was detected in either the S phase (22.7%) or G2/M (5.8%) phase. Moreover, after a 72 hrs treatment with compound 5 (1 and 10 μM), cells progressed to the S phase and the majority of cell population was almost arrested at the S phase. Consistent with this cell cycle arrest, only 36.6% (1 μM) and 46.9% (10 μM) of the cells were found at the G0-G1 phase, 63.2% (1 μM) and 53.0% (10 μM) in S phase, and 0.2% (1 μM) and 0.1% (10 μM) in G2/M phase. However, the significant blockage of the Hep G2 cell cycle in S phase was observed and was induced by both concentrations (1 μM and 10 μM) of compound 5.

[6] = tested on: Hela: human cervix epitheloid carcinoma
[7] = tested on: KB: human oral epidermoid carcinoma; assay: In vitro anticancer assay (cytotoxicity), human solid tumor cells
Hepa: human hepatoma [8] = tested on: Hepa: human hepatoma
topoisomerase I = molecular target: T1, topoisomerase I (Homo sapiens, UniProt P11387); assay: Topoisomerase I course assay, cleavage of supercoiled pGEM9zf(−) DNA, gel electrophoresis; assay type: biochemical; conditions: 87 μM compound
T1 sequence (P11387 1-765): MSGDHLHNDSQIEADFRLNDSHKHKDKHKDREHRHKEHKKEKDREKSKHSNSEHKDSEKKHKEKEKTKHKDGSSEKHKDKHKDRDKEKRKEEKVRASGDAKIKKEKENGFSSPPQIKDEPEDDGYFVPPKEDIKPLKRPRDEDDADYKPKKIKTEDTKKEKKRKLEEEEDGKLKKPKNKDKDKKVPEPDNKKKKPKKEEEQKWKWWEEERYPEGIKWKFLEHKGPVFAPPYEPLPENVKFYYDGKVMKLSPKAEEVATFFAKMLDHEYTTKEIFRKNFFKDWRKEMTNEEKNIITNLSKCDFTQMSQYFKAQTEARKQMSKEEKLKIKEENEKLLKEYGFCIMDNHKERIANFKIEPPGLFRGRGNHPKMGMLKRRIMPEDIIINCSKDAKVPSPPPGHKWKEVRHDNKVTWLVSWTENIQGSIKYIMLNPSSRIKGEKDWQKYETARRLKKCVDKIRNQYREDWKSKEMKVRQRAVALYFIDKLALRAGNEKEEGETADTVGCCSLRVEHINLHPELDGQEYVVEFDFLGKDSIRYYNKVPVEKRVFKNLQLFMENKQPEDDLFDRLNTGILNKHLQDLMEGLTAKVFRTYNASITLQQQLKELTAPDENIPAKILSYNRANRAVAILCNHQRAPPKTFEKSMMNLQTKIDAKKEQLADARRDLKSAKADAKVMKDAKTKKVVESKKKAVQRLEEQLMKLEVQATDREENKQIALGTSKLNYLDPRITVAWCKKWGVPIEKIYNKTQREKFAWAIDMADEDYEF

Row | Structure (SMILES) | IC50 Values of Cytotoxicities, DLD [1] | IC50 (Hep2,2,15) [µM] | IC50 Values of Cytotoxicities, NCI [3] | IC50 (KB) [µM] | IC50 [1] [µg/mL] | IC50 (Hepa: human hepatoma [2]) [µg/mL] | IC50 [3] [µg/mL] | IC50 [4] [µg/mL] | also measured
1 | N#Cc1ccccc1C#C/C=C\C#CCOC1CCCCO1 (stereo not shown) [Compound 1, 2-(7-(Tetrahydropyranyloxy)-3(Z)-hepten-1,5-diynyl)-benzonitrile] | 8.61 µg/mL | > 10 | —* (“—” means IC50 >20 μg/ml) | 0.1 |  |  |  |  | IC50 Values of Cytotoxicities, Hepa (Hepa: human hepatoma [2]): 14.26 µg/mL; IC50 Values of Cytotoxicities, Hela [4]: 9.97 µg/mL
2 | N#Cc1ccccc1C#C/C=C\C#CCCCOC1CCCCO1 (stereo not shown) [Compound 2, 2-(9-(Tetrahydropyranyloxy)-3(Z)-nonen-1,5-diynyl)-benzonitrile] | — (“—” means IC50 >20 μg/ml) | > 10 | — (“—” means IC50 >20 μg/ml) | < 0.01 |  |  |  |  | IC50 Values of Cytotoxicities, Hepa (Hepa: human hepatoma [2]): 14.66 µg/mL; IC50 Values of Cytotoxicities, Hela [4]: 10.62 µg/mL
3 | CCCCC#C/C=C\C#Cc1ccccc1C#N [Compound 3, 2-(3(Z)-Decen-1,5-diynyl)benzonitrile] |  | 17 |  | < 0.01 | 5.03 (≈ 21.6 µM) | 12.5 (≈ 53.5 µM) | > 20 | > 20 | 
4 | CCCCCC#C/C=C\C#Cc1ccccc1C#N [Compound 4, 2-(3(Z)-Undecen-1,5-diynyl)benzonitrile] |  | > 10 |  | < 0.01 | > 20 | 7.28 (≈ 29.4 µM) | > 20 | 6.38 (≈ 25.8 µM) | 
5 | N#Cc1ccccc1C#C/C=C\C#Cc1ccccc1 [Compound 5, 2-(6-phenyl-3(Z)-hexen-1,5-diynyl)benzonitrile] |  |  |  |  | > 20 | 1.09 (≈ 4.3 µM) | 7.01 (≈ 27.7 µM) | > 20 | cells at the G0-G1 phase ([5]; 1 μM): 36.6%; cells in G2/M phase ([5]; 1 μM): 0.2%; cells in S phase ([5]; 1 μM): 63.2%; cells at the G0-G1 phase ([5]; 10 μM): 46.9%; cells in G2/M phase ([5]; 10 μM): 0.1%; cells in S phase ([5]; 10 μM): 53.0%
6 | CCCCC#C/C=C\C#Cc1ccc(Cl)cc1 [Compound 13] |  |  | 8.00 µg/mL |  |  |  |  |  | IC50 Values of Cytotoxicities, Hela [6]: 9.83 µg/mL; IC50 Values of Cytotoxicities, KB [7]: — (“—” means IC50 >20 μg/ml); IC50 Values of Cytotoxicities, Hepa (Hepa: human hepatoma [8]): — (key: “—” means IC50 >20 μg/ml)
7 | CCCCCCC#C/C=C\C#Cc1ccc(C(C)=O)cc1 [Compound 23, 4-(3-(Z)-Dodecen-1,5-diynyl)acetophenone] | — (“—” means IC50 >20 μg/ml) |  | 13.13 µg/mL |  |  |  |  |  | IC50 Values of Cytotoxicities, Hela [6]: — (key: “—” means IC50 >20 μg/ml); IC50 Values of Cytotoxicities, Hepa (Hepa: human hepatoma [8]): — (key: “—” means IC50 >20 μg/ml); inhibition of topo I (topoisomerase I): displayed inhibitory activities of topo I
